# Experimental data reported in paper PMC12663294 (Nature Communications, 2025).
# Where two headings read alike, the source gives them in different places.
# Key:
# [1] = tested on: GAL4/UAS-AncCoeae6g mosquitoes; conditions: in vivo
# [2] = molecular target: T1, recombinant An. coluzzii Coeae6g (Anopheles coluzzii, UniProt A0A6E8VQK1); assay: Insecticide inhibition of α-NA hydrolysis by recombinant Coeae6g; type: biochemical; conditions: for IC50 (μΜ) (95% CI) of α-NA hydrolysis: 10 min pre-incubation, α-NA at Km, Sf9 homogenate expressing Coeae6g
# T1 sequence (A0A6E8VQK1 1-582): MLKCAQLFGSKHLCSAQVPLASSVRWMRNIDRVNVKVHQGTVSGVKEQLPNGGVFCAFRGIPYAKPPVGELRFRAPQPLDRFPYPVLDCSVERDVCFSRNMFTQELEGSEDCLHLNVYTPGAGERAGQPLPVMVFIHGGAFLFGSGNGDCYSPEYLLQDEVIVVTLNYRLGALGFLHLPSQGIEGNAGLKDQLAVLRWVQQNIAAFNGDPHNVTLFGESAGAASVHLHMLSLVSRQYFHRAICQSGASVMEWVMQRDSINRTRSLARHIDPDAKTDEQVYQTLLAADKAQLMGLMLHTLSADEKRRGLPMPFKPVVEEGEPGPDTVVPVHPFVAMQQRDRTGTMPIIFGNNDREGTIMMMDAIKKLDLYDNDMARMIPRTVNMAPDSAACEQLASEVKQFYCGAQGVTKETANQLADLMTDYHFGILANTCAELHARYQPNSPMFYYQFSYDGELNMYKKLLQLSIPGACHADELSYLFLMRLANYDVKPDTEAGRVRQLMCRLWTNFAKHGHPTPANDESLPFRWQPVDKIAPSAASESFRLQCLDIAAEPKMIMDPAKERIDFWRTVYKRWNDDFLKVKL
# [3] = tested on: active serine hydrolases (FP-reactive bands, ~62–70 kDa) in An. gambiae homogenates; type: biochemical, Anopheles gambiae (Kisumu strain)
# [4] = tested on: GAL4/UAS-AncCoeae6g mosquitoes; assay: WHO tube/adult bioassays
# [5] = tested on: GAL4/UAS-AngCoeae6g mosquitoes; assay: WHO tube/adult bioassays; parameters: species or system Anopheles gambiae; conditions: in vivo
# [6] = molecular target: T1, recombinant An. coluzzii Coeae6g; type: biochemical; conditions: for fold increased esterase activity compared to YFP-expressing and uninfected Sf9 cells: resuspended cell pellets expressing Coeae6g; for Km: read-out: Km (95% CI); for Km / Vmax (95% CI): substrate of recombinant Coeae6g (Sf9-Coeae6g)
# [7] = tested on: whole extracts of An. gambiae Coeae6g overexpressing mosquitoes; assay: Total esterase activity of whole mosquito extracts towards model substrates; type: biochemical, Anopheles gambiae
# [8] = tested on: A11 parental line mosquitoes; assay: WHO tube/adult bioassays; type: in vivo, Anopheles gambiae; conditions: exposure for 10 and 15 min, three replicates
smiles,measurement,setting,value
"CC1(C)C(C=C(Cl)Cl)C1C(=O)OCc1cccc(Oc2ccccc2)c1 (centres unmarked) [Permethrin, permethrin]",Mortality rate,[1],81.8%
same,IC50,[2],130 µM
"CCN(CC)c1nc(C)cc(OP(=S)(OC)OC)n1 [PM, pirimiphos-methyl]",T-FP labelling of distinct ~90 kDa band,[3],not affected
same,T-FP labelling of prominent bands at ~62–70 kDa,[3],markedly reduced
same,IC50,[3]; read-out: IC₅₀ (FP-TAMRA labelled ~62–70 kDa band intensity),~10.6 µM
same,Mortality rate,[4]; in vivo,79%
same,Mortality rate,[5],67%
same,IC50 (μΜ) (95% CI) of α-NA hydrolysis,[2],No inhibition
"CNC(=O)Oc1cccc2c1OC(C)(C)O2 [Bendiocarb, bendiocarb]",IC50,[2],7.27 µM
"CC(=O)Oc1ccc([N+](=O)[O-])cc1 [p-NPA, p-nitrophenyl acetate]",fold increased esterase activity compared to YFP-expressing and uninfected Sf9 cells,[6],8-12 fold
same,fold higher total carboxylesterase activity than control parental mosquitoes,[7],2.9 fold
"CCOC(=O)CC(SP(=O)(OC)OC)C(=O)OCC (centres unmarked) [Malaoxon, malaoxon]",IC50,[2],0.24 µM
"CCOC(=O)CC(SP(=S)(OC)OC)C(=O)OCC (centres unmarked) [Malathion, malathion]",IC50,[2],> 45 µM
same,IC50 (μΜ) (95% CI) of α-NA hydrolysis,[2],No inhibition
"CC1(C)[C@H](C(=O)O[C@H](C#N)c2cccc(Oc3ccccc3)c2)[C@@H]1C=C(Br)Br [Deltamethrin, deltamethrin]",Mortality,[8],100%
same,Mortality,"[4]; exposure for 10 and 15 min, three replicates",100%
same,IC50,[2],> 450 µM
same,IC50 (μΜ) (95% CI) of α-NA hydrolysis,[2],no inhibition
"CC(=O)Oc1cccc2ccccc12 [α-NA, α-naphthyl acetate]",Km,[6],68.5 µM
same,fold increased esterase activity compared to YFP-expressing and uninfected Sf9 cells,[6],8-12 fold
same,Vmax (95% CI),[6],307.7 nmol min^−1 mg total protein^−1
"CC(=O)Oc1ccc2ccccc2c1 [β-NA, β-naphthyl acetate]",Km,[6],369 µM
same,fold increased esterase activity compared to YFP-expressing and uninfected Sf9 cells,[6],8-12 fold
same,Vmax (95% CI),[6],253.0 nmol min^−1 mg total protein^−1
same,fold higher total carboxylesterase activity than control parental mosquitoes,[7],2.3 fold
"CNC(=O)Oc1ccccc1OC(C)C [Propoxur, propoxur]",IC50,[2],3.52 µM
